From PMC4154858, “Inhibition of the SR Protein-Phosphorylating CLK Kinases of Plasmodium falciparum Impairs Blood Stage Replication and Malaria Transmission” (PLoS ONE, 2014)

How the values were obtained:
Type in all cases: biochemical
Conditions in all cases: labelled compound; histone H1, MBP or casein as phosphoacceptor; 10 µM ATP, Mg/Mn, pH 7.5, 37 °C
[1] = molecular target: T1, PfCLK-4 (Plasmodium falciparum, UniProt O77306); experiment: radiometric kinase assay of immunoprecipitate, autoradiography
T1 construct: gene PF3D7_0302100; endogenous full-length, about 160 kDa, immunoprecipitated from mixed asexual blood stage lysate on protein G-beads
T1 sequence (O77306 1-1338): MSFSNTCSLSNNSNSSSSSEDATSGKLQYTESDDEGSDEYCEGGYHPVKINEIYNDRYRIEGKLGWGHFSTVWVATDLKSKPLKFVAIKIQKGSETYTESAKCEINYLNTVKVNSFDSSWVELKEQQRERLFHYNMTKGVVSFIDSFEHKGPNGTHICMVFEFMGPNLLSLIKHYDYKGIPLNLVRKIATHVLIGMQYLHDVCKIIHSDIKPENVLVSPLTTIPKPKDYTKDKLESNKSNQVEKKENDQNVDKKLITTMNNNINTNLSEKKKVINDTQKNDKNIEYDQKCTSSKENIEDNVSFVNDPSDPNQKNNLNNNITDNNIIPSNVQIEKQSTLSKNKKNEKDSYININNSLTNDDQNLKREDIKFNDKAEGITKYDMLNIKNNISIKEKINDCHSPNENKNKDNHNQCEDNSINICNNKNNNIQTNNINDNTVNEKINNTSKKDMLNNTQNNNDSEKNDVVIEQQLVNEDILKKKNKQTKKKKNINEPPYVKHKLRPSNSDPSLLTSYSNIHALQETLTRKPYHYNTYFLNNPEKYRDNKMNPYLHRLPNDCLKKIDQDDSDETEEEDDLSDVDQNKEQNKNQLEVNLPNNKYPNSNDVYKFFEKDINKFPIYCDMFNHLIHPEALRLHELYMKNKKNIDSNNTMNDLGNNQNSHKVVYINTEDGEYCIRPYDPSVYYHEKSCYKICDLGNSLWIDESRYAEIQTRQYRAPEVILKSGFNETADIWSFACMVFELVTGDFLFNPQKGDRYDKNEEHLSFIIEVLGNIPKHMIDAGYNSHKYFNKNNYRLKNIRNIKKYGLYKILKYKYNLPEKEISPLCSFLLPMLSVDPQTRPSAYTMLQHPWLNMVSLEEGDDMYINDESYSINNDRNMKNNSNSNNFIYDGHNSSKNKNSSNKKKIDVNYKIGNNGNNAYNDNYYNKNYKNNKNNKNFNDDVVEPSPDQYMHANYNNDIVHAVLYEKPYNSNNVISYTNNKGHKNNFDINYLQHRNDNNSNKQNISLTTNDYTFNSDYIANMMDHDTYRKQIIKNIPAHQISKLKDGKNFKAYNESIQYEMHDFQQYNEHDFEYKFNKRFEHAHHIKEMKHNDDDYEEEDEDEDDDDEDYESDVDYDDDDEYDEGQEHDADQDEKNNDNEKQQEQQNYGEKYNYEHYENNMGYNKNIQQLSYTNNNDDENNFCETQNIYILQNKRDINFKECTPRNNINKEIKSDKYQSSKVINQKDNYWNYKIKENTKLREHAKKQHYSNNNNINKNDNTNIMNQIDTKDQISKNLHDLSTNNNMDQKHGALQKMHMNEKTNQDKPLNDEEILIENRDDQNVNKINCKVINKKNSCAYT

[2] = molecular target: T2, PfCLK-2 (Plasmodium falciparum, UniProt Q8IL41); experiment: as above
T2 construct: gene PF3D7_1443000; endogenous full-length, about 150 kDa, immunoprecipitated from mixed asexual blood stage lysate on protein G-beads
T2 sequence (Q8IL41 1-1268): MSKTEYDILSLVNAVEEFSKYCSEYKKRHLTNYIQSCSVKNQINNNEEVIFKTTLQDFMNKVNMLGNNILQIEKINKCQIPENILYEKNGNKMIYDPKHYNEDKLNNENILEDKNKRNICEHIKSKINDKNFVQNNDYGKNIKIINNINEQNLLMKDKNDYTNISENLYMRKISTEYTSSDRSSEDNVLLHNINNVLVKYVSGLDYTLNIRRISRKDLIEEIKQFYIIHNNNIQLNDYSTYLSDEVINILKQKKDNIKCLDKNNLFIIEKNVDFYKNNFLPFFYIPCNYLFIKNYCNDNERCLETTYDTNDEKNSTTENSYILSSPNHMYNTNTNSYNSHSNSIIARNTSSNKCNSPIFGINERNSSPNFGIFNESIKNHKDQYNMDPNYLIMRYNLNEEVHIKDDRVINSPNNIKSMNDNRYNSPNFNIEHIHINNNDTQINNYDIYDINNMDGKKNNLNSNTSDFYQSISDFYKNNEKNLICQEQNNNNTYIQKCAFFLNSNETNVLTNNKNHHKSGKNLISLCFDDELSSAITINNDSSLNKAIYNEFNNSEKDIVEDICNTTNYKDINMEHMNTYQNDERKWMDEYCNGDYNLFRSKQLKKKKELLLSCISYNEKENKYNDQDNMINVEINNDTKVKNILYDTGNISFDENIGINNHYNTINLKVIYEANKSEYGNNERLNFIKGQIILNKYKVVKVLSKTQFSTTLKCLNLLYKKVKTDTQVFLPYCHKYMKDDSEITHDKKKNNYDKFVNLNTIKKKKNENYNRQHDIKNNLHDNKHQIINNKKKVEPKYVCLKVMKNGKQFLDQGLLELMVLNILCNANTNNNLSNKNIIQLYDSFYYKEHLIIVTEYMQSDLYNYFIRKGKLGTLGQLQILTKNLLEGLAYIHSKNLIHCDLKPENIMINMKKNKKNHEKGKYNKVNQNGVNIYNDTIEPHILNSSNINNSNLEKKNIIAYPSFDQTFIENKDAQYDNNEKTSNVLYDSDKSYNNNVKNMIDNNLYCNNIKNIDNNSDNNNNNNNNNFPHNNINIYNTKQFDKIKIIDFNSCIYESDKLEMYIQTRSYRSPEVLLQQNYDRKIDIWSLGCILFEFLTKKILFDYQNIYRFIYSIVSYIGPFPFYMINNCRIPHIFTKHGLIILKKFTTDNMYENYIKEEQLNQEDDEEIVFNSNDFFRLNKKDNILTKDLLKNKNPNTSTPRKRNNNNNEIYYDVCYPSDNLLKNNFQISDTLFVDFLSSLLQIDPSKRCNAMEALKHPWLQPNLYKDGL

[3] = molecular target: T3, PfPK6 (Plasmodium falciparum, UniProt O77239); experiment: radiometric kinase assay, autoradiography
T3 construct: gene PK6; recombinant His6-tagged, purified as previously reported
T3 sequence (O77239 1-305): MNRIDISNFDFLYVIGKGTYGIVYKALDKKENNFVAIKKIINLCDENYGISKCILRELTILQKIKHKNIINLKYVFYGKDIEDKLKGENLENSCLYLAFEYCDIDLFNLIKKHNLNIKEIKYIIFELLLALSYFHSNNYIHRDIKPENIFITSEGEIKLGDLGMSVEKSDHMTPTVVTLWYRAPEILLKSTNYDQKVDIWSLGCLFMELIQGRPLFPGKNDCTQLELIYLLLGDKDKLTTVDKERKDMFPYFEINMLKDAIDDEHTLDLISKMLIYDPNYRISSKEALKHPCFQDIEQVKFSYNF

[4] = molecular target: T4, PfCLK-3 (Plasmodium falciparum, UniProt Q8IIL5); experiment: radiometric kinase assay of immunoprecipitate, autoradiography
T4 construct: gene PF3D7_1114700; endogenous full-length, about 80 kDa, immunoprecipitated from mixed asexual blood stage lysate on protein G-beads
T4 sequence (Q8IIL5 1-699): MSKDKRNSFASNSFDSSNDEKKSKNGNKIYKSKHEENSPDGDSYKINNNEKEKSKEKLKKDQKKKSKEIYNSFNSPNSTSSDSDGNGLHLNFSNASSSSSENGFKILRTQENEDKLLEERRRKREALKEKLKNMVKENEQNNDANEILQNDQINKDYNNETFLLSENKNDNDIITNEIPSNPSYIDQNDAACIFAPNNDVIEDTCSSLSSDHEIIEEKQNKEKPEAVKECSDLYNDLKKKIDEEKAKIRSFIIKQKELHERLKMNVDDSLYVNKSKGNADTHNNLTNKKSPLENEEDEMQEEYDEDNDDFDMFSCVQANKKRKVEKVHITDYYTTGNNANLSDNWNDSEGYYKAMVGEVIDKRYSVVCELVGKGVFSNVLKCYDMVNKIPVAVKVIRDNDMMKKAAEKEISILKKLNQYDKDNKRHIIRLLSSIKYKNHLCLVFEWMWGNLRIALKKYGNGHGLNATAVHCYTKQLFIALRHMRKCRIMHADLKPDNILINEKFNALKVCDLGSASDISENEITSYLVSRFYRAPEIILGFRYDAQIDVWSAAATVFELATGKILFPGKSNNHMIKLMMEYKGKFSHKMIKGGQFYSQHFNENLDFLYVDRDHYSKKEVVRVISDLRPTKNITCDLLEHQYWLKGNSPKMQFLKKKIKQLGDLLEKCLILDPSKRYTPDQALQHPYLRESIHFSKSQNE

SMILES: Nc1ncnc2c1ncn2[C@@H]1O[C@H](COP(=O)(O)OP(=O)(O)OP(=O)(O)O)[C@@H](O)[C@H]1O [ATP]
- radiometric kinase assay of immunoprecipitate, autoradiography [1]: All PfCLKs were associated with phosphorylation activity of all three substrates
- radiometric kinase assay of immunoprecipitate, autoradiography [2]: All PfCLKs were associated with phosphorylation activity of all three substrates
- radiometric kinase assay, autoradiography [3]: also exhibited strong phosphorylation activity of the three exogenous substrates
- radiometric kinase assay of immunoprecipitate, autoradiography [4]: All PfCLKs were associated with phosphorylation activity of all three substrates
